Values quoted from earlier work, collected in patent US20150045432A1, “DIETARY SUPPLEMENT COMPRISING AMINO ACIDS IN A PALATABLE LIQUID FORMULATION THAT PROMOTES RESTFUL SLEEP, RECOVERY FROM STRESS AND EXERCISE AND STRENGTHENS THE IMMUNE SYSTEM” (North Health Essentials, LLC, priority 2013, published 2015).

Assays:
[1] = 3 grams of glycine, bolus before bedtime
[2] = taken within an hour before going to bed, versus those who did not take the amino acid
[3] = rats
[4] = after 60 minutes of administration, compared to water or L-threonine

distribution in the brain [3] | Compound | alpha waves [4] | beta waves [4] | immunity under stress conditions (in vivo) | time after administration within which relaxant effects could be seen (induce relaxation and diminish anxiety) [h] | daytime sleepiness [1] | sleep quality and efficacy [1] | brainwave patterns of non-REM sleep and sleep length [2]
 | NCCCC(=O)O [GABA, gamma-aminobutyric acid] | significantly increases alpha waves | decreases beta waves | could enhance immunity | ≤ 1 |  |  | 
accumulates in the pineal gland | NCC(=O)O [glycine] |  |  |  |  | lessened daytime sleepiness | improved sleep quality and efficacy | showed brainwave patterns associated with non-REM sleep sooner and slept longer
